Source: US7795203B2, “Method for topical treatment of eye disease and composition and device for said treatment” (priority 2002, dated 2010)
Where a SMILES comes first, the peptide text is derived from it.

Key:
[1] = Clinical study of 0.1% N-Acetyl-RGDS in patients with POAG and OH (IOP, tonography); assay type: in vivo, human; conditions: 0.1% topically twice daily
Source text: Without intending to be bound by theory, the inventor currently believes that RGD-containing peptides, and/or their pharmacologically acceptable salts, are efficacious for the therapeutical and surgical treatment of primary open-angle glaucoma (POAG) and ocular hypertension (OH). […] The effect of 0.1% N-Acetyl-RGDS on outflow facility, as studied by tonography, was striking providing a significant increase to 26-33%. The cleansing activity of Acetyl-RGDS is accompanied by increase in trabecular outflow facility which is different from that of other drugs (pilocarpine) previously shown in patients with POAG and OH. The clinical significance and mechanism of IOP reduction by N-Acetyl-RGDS are related with the cleansing effect of N-Acetyl-RGDS on extracellular matrix proteins and plaque material in trabecular meshwork to reduce the outflow resistance in the eyes of patients with POAG and OH. It is believed N-Acetyl-RGDS is also suitable to treat secondary cataracts and vitreoproliferative disorders.

carnosinase = target: T1, carnosinase (Homo sapiens, UniProt Q96KN2); experiment: Hydrolysis with carnosinase; assay type: biochemical; conditions: substrate of carnosinase similar to L-carnosine
T1 sequence (Q96KN2 27-507 limits assumed): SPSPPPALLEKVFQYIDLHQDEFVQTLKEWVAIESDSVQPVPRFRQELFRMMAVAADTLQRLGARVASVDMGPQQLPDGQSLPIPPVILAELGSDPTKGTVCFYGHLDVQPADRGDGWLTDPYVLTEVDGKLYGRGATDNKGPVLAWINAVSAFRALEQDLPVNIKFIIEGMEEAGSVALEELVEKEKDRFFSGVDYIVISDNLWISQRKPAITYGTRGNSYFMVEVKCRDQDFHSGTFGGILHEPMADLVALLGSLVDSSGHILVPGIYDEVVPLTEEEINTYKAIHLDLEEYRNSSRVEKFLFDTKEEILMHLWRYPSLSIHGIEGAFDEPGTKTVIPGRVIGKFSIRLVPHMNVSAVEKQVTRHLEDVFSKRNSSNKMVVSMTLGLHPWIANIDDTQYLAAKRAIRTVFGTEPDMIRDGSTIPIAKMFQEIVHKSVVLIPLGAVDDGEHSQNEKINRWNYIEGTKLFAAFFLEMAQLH
Experimental: (§1) Yet another advantage of the present invention is that systemic absorption of N-acetylcarnosine and/or carnosine is increased through the microvessels of the conjunctival and lid mucosal tissues because the cellulose compound increases the time of persistence of N-acetylcarnosine in the conjunctival sac. More particularly, N-acetylcarnosine appears in blood plasma within 30 min of its topical administration to the eye with carboxymethylcellulose. The half time of decay of N-acetylcarnosine in plasma is about 150 min or more according to pharmacokinetic studies. […] Accordingly, once in blood plasma N-acetylcarnosine can act as a competititve saturating inhibitor of carnosinase, which is very helpful to protect L-carnosine from hydrolysis during concomitant oral administration of L-carnosine as an anti-aging therapy.

[2] = Pharmacokinetic studies: N-acetylcarnosine in blood plasma after topical administration to the eye; assay type: in vivo
Experimental: as §1

| SMILES | tolerability [1] | resistance to hydrolysis with carnosinase (carnosinase) | half time of decay in plasma ([2]; according to pharmacokinetic studies) [min] | time to appearance in blood plasma ([2]; topical administration to the eye with carboxymethylcellulose) [min] |
| --- | --- | --- | --- | --- |
| CC(=O)N[C@@H](CCCNC(=N)N)C(=O)NCC(=O)N[C@@H](CC(=O)O)C(=O)N[C@@H](CO)C(=O)O [N-Acetyl-RGDS, N-acetyl-Arg-Gly-Asp-Ser peptide] (Ac-RGDS-OH) | well tolerated |  |  |  |
| CC(=O)NCCC(=O)N[C@@H](Cc1c[nH]cn1)C(=O)O [N-acetylcarnosine] |  | highly resistant to hydrolysis with carnosinase | ≥ 150 | ≤ 30 |
